Patent publication US20230042936A1, “PYRIDO[2,3-d]PYRIMIDIN-7(8H)-ONES AS CDK INHIBITORS” (PROSENESTAR LLC, priority 2020, published 2023)
pIC50: −log10 of the molar value. “Also recorded” adds a separate entry of the source. Where two headings read alike, the source gives them in different places.

Columns and labels:
[1] = molecular target: T1, AKT1 aa1-480 (Homo sapiens, UniProt P31749); test: Kinase profiling; assay type: biochemical; settings: 10 semi-logarithmic dilutions from 50 μM, singlicate
T1 construct: AKT1 aa1-480
T1 sequence (P31749 whole entry, the tested form may be a part): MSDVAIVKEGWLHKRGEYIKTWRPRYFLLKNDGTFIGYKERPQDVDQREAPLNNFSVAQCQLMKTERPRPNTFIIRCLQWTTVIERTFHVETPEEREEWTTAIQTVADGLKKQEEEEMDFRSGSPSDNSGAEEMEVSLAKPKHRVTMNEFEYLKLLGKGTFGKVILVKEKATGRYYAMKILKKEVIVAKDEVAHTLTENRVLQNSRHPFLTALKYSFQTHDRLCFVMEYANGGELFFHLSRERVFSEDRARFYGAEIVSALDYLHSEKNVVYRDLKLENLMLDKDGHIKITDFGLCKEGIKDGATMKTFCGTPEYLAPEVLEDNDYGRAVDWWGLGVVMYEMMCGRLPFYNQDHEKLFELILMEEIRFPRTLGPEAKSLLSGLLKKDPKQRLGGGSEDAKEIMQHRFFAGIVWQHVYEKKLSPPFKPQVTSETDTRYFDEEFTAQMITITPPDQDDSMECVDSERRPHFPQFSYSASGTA

[2] = molecular target: CDK1/CycA2 (Homo sapiens, UniProt P06493); test: Kinase profiling; assay type: biochemical
[3] = molecular target: CDK1/CycE1 (Homo sapiens, UniProt P06493); test: Kinase profiling; assay type: biochemical
[4] = molecular target: CDK19/CycC (Homo sapiens, UniProt Q9BWU1); test: Kinase profiling; assay type: biochemical; settings: 10 semi-logarithmic dilutions from 50 μM, singlicate
Chain of CDK19/CycC (Q9BWU1 whole entry): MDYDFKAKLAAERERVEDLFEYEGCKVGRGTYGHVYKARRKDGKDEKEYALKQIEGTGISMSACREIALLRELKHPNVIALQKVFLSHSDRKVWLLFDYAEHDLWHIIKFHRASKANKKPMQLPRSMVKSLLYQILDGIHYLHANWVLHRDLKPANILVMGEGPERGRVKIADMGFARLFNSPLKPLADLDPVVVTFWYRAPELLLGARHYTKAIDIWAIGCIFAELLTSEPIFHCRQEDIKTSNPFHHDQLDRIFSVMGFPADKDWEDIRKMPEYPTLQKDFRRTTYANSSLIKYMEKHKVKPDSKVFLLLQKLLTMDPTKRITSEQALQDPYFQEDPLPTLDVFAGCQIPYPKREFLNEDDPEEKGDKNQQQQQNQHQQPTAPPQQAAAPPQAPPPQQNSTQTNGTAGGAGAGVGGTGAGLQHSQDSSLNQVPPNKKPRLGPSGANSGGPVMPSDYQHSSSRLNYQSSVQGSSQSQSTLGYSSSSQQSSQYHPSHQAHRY
Chain of CDK19/CycC (P24863 whole entry partner): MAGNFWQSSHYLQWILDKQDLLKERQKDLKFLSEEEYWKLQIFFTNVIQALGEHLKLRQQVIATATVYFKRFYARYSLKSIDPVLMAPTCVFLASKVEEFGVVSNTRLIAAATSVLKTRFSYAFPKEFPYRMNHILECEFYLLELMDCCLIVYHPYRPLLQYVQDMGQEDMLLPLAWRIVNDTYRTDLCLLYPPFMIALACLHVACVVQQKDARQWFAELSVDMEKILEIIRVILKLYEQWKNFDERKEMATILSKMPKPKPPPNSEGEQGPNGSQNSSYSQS

[5] = molecular target: CDK2/CycE1 (Homo sapiens, UniProt P24941); test: Kinase profiling; assay type: biochemical
[6] = molecular target: CDK3/CycC (Homo sapiens, UniProt Q00526); test: Kinase profiling; assay type: biochemical; settings: 10 semi-logarithmic dilutions from 50 μM, singlicate
Chain of CDK3/CycC (Q00526 whole entry): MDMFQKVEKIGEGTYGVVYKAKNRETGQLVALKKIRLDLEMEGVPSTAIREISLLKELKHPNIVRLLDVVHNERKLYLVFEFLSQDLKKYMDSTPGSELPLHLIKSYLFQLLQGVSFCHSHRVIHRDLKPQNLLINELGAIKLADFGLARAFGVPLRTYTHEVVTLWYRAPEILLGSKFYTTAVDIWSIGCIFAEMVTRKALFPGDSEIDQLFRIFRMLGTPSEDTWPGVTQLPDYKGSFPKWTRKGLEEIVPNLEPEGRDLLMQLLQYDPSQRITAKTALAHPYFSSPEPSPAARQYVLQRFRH
Chain of CDK3/CycC (P24863 whole entry partner): as the sequence (P24863 whole entry partner) above

[7] = molecular target: CDK3/CycE1 (Homo sapiens, UniProt Q00526); test: Kinase profiling; assay type: biochemical; settings: 10 semi-logarithmic dilutions from 50 μM, singlicate
Chain of CDK3/CycE1 (Q00526 whole entry): as the sequence (Q00526 whole entry) above
Chain of CDK3/CycE1 (P24864 whole entry partner): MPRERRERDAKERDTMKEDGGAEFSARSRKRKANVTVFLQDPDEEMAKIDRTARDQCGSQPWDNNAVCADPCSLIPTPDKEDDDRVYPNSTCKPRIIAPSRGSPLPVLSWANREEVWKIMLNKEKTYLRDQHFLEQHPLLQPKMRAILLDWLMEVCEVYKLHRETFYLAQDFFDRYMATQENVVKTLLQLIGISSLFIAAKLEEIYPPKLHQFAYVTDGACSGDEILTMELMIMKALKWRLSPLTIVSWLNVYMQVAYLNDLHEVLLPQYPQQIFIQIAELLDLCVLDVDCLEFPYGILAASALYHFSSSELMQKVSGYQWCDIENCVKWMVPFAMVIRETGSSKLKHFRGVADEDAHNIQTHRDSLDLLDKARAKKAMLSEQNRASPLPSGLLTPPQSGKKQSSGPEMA

[8] = molecular target: CDK4/CycD3 (Homo sapiens, UniProt P11802); test: Kinase profiling; assay type: biochemical
[9] = molecular target: CDK6/CycD1 (Homo sapiens, UniProt Q00534); test: Kinase profiling; assay type: biochemical; settings: 10 semi-logarithmic dilutions from 50 μM, singlicate
[10] = molecular target: CDK8/CycC (Homo sapiens, UniProt P49336); test: Kinase profiling; assay type: biochemical; settings: 10 semi-logarithmic dilutions from 50 μM, singlicate
[11] = molecular target: CDK9/CycK (Homo sapiens, UniProt P50750); test: Kinase profiling; assay type: biochemical; settings: 10 semi-logarithmic dilutions from 50 μM, singlicate
Chain of CDK9/CycK (P50750 whole entry): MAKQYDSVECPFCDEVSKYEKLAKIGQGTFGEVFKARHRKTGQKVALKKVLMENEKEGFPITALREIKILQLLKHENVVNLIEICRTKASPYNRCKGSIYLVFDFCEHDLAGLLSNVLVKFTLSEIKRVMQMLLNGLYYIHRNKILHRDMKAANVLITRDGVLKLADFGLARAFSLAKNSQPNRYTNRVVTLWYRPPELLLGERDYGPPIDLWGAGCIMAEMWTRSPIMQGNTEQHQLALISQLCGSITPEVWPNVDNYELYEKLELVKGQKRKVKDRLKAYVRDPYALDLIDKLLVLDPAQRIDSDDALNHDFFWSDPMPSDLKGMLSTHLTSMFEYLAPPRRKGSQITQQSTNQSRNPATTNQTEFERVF
Chain of CDK9/CycK (O75909 whole entry partner): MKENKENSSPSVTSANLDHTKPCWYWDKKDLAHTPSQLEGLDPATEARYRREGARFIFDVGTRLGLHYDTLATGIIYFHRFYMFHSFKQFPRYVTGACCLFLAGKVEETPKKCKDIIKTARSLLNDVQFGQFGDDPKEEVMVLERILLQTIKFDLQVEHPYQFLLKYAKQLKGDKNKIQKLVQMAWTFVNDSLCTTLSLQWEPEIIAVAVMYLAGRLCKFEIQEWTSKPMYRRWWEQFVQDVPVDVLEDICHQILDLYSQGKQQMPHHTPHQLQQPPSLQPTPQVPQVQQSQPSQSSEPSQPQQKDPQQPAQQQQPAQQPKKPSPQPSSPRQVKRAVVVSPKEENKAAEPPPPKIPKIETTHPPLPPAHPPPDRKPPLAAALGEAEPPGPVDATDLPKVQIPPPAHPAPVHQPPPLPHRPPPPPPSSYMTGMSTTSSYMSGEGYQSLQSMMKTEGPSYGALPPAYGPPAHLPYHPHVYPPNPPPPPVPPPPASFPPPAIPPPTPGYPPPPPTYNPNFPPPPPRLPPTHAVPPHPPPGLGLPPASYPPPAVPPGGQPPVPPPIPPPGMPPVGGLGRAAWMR

[12] = molecular target: CDK9/CycT1 (Homo sapiens, UniProt P50750); test: Kinase profiling; assay type: biochemical; settings: 10 semi-logarithmic dilutions from 50 μM, singlicate
Chain of CDK9/CycT1 (P50750 whole entry): as the sequence (P50750 whole entry) above
Chain of CDK9/CycT1 (O60563 whole entry partner): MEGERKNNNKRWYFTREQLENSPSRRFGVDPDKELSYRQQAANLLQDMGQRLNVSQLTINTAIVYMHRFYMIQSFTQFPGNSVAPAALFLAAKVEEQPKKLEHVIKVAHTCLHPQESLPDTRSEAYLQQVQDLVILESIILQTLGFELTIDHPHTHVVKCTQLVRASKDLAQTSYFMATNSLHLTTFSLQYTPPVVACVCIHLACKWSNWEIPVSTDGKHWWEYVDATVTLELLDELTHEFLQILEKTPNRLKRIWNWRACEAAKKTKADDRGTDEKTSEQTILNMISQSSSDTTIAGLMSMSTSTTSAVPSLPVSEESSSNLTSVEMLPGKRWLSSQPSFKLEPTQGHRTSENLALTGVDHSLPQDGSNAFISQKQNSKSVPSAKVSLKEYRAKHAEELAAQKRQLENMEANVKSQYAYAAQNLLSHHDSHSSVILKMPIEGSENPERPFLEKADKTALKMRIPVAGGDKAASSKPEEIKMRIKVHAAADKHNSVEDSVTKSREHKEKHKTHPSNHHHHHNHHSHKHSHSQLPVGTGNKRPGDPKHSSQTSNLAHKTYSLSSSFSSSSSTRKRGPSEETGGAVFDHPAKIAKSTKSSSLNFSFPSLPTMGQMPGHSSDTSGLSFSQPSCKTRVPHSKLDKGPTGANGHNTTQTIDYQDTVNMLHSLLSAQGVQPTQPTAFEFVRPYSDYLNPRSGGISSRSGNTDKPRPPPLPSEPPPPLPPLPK

[13] = molecular target: DYRK1A (Homo sapiens, UniProt Q13627); test: Kinase profiling; assay type: biochemical; settings: 10 semi-logarithmic dilutions from 50 μM, singlicate
[14] = molecular target: T2, DYRK2 (Homo sapiens, UniProt Q92630); test: Kinase profiling; assay type: biochemical; settings: 10 semi-logarithmic dilutions from 50 μM, singlicate; read-out: IC50 DYRK2
T2 sequence (Q92630 1-601): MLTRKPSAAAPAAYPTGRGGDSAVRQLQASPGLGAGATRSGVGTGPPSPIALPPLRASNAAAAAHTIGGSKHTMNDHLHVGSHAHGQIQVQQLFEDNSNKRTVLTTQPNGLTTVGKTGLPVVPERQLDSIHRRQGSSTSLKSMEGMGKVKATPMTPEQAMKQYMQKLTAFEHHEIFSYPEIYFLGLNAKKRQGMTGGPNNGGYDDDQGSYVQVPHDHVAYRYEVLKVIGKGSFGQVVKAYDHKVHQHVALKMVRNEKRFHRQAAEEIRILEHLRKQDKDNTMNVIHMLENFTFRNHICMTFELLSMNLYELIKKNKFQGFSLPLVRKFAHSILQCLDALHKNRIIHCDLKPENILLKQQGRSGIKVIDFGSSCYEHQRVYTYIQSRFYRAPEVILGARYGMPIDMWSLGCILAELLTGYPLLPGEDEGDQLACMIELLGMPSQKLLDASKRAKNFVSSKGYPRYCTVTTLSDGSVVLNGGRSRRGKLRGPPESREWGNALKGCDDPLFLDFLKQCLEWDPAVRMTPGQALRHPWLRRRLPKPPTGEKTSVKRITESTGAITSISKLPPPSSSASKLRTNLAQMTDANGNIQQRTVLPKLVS

[15] = molecular target: PCTAIRE1/CycY (Homo sapiens, UniProt Q00536); test: Kinase profiling; assay type: biochemical; settings: 10 semi-logarithmic dilutions from 50 μM, singlicate
Chain of PCTAIRE1/CycY (Q00536 whole entry, species assumed): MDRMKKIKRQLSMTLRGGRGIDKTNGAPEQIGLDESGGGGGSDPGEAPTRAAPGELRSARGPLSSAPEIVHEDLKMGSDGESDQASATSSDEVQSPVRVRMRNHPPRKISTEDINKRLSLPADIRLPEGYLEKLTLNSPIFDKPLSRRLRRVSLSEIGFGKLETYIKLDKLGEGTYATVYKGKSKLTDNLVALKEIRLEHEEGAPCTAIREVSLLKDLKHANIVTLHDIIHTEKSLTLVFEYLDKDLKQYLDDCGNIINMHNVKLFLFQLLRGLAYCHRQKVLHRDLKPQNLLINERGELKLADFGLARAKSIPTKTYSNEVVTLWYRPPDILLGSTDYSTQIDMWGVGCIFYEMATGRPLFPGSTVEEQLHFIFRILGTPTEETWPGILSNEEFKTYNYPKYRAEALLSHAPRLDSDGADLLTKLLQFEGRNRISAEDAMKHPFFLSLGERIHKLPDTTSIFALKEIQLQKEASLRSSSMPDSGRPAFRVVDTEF
Chain of PCTAIRE1/CycY (Q8ND76 whole entry partner, species assumed): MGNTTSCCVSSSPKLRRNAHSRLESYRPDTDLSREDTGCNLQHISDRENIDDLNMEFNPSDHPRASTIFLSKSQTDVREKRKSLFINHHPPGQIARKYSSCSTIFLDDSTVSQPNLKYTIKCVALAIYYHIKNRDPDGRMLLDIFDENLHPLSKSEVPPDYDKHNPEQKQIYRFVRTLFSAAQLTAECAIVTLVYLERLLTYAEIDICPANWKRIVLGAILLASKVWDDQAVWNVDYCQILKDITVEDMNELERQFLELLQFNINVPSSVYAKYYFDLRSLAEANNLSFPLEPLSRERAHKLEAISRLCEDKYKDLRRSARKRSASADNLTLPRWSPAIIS

[16] = molecular target: PIM1 (Homo sapiens, UniProt P11309); test: Kinase profiling; assay type: biochemical; settings: 10 semi-logarithmic dilutions from 50 μM, singlicate
[17] = system: panel of 27 kinases (CDK family members); test: Kinase profiling, results in words; assay type: biochemical; settings: from Table 1
[18] = system: MDA-MB-231 human breast cancer cells; test: Cell cycle analysis (DNA content, flow cytometry); assay type: cell-based; settings: GI50 concentration; FIG. 1
Description: FIG. 1 depicts DNA content profiles of MDA-MB-231 human breast cancer cells treated with subject compounds or commercial CDK inhibitors, showing the percentage of cells at the different cell cycle phases after 48 hours of the treatments indicated. (n=6 technical replicates).
Cells were collected by trypsinization, washed with PBS and fixed with cold 70% ethanol. Cells were treated with 250 μg/ml RNase (Qiagen) for 30 minutes at 37° C. and stained with 10 μg/ml Propidium Iodide (Sigma). Cell cycle was analyzed by flow cytometry using a LSR Fortessa Analyzer. Cell cycle profiles were generated and analyzed with FlowJo software.
Cells were collected by tripsinization at several times after treatment with the indicated compounds and, then, fixed with cold 70% Ethanol. DNA content was determined by staining with propidium iodide (10 μg/ml, Sigma Aldrich). Data acquisition was performed with a LSR Fortessa analyzer (BD Biosciences) and analysed using FlowJo software.

[19] = 10 semi-logarithmic dilutions from 50 μM, singlicate

pIC50 [1] | pIC50 [2, 19] | pIC50 [3, 19] | pIC50 [4] | pIC50 [5, 19] | pIC50 [6] | pIC50 [7] | pIC50 [8, 19] | pIC50 [9] | pIC50 [10] | pIC50 [11] | pIC50 [12] | pIC50 [13] | pIC50 [14] | pIC50 [15] | pIC50 [16] | affinity for CDK5 [17] | kinase affinity profile [17] | Structure (SMILES) | cell cycle arrest by DNA content [18] | cell death (sub-G1 accumulation) [18] | also measured
< 4.30 | 5.87 | 6.28 | 5.56 | 7.14 | 6.26 | 7.03 | 7.68 | 8.13 | 7.42 | 7.33 | 7.03 | 4.54 | 4.71 | 5.70 | 4.40 | presented affinity |  | O=c1ccc2cnc(Nc3ccc(N4CCC(OCC5(CO)COC5)CC4)cc3)nc2n1[C@@H]1CC2CCC1C2 (stereo partly drawn) [PS016, 8-((2R)-bicyclo[2.2.1]heptan-2-yl)-2-((4-(4-((3-(hydroxymethyl)oxetan-3-yl)methoxy)piperidin-1-yl)phenyl)amino)pyrido[2,3-d]pyrimidin-7(8H)-one] | induced G2/M arrest |  | additional affinity for CDK1/2 [17]: additional affinity
< 4.30 | 6.75 | 6.76 | 6.63 | 7.76 | 7.27 | 7.57 | 8.53 | > 8.82 | 7.77 | 7.99 | 7.67 | 5.86 | 5.33 | 8.11 | 5.14 |  | bind many other CDK family members | CC(O)CCN1CCN(c2ccc(Nc3ncc4ccc(=O)n([C@@H]5CC6CCC5C6)c4n3)cc2)CC1 (stereo partly drawn) [PS005, 8-((2R)-bicyclo[2.2.1]heptan-2-yl)-2-((4-(4-(3-hydroxybutyl)piperazin-1-yl)phenyl)amino)pyrido[2,3-d]pyrimidin-7(8H)-one] | accumulation of cells both in G1 and G2/M phases | led to cell death | 
< 4.30 | 5.38 | 5.84 | 5.55 | 6.56 | 6.77 | 6.15 | 8.26 | 8.74 | 4.78 | 7.92 | 7.44 | 5.44 | 5.90 | 5.37 | 5.09 | presented affinity |  | CC(=O)c1c(C)c2cnc(Nc3ccc(N4CCNCC4)cc3)nc2n([C@@H]2CC3CCC2C3)c1=O (stereo partly drawn) [PS010, 6-acetyl-8-((2R)-bicyclo[2.2.1]heptan-2-yl)-5-methyl-2-((4-(piperazin-1-yl)phenyl)amino)pyrido[2,3-d]pyrimidin-7(8H)-one] | accumulation of cells both in G1 and G2/M phases | led to cell death | 
4.93 | 6.68 | 7.39 | 6.54 | 8.11 | 7.40 | 7.92 | 8.65 | > 8.82 | 6.51 | 8.14 | 7.87 | 5.93 | 5.64 | 8.39 | 6.31 |  | bind many other CDK family members | O=c1ccc2cnc(Nc3ccc(N4CCNCC4)cc3)nc2n1[C@@H]1CC2CCC1C2 (stereo partly drawn) [PS007, 8-((2R)-bicyclo[2.2.1]heptan-2-yl)-2-((4-(piperazin-1-yl)phenyl)amino)pyrido[2,3-d]pyrimidin-7(8H)-one] | accumulation of cells both in G1 and G2/M phases | led to cell death | 
< 4.30 | 4.47 | 4.84 | 4.60 | 5.14 | 4.57 | 4.77 | 5.42 | 6.31 | 6.91 | 5.15 | 5.09 | < 4.30 | < 4.30 | < 4.30 | 4.55 |  |  | O=c1ccc2cnc(Nc3ccc(N4CCC(CCCO)CC4)cc3F)nc2n1[C@@H]1CC2CCC1C2 (stereo partly drawn) [PS002, 8-((2R)-bicyclo[2.2.1]heptan-2-yl)-2-((2-fluoro-4-(4-(3-hydroxypropyl)piperidin-1-yl)phenyl)amino)pyrido[2,3-d]pyrimidin-7(8H)-one] |  |  | 
< 4.30 | 5.10 | 5.53 | 4.72 | 6.26 | 5.40 | 5.95 | 6.42 | 7.14 | 6.17 | 6.34 | 6.04 | < 4.30 | < 4.30 | 4.36 | < 4.30 |  |  | O=c1ccc2cnc(Nc3ccc(N4CCC(CCCO)CC4)c(F)c3)nc2n1[C@@H]1CC2CCC1C2 (stereo partly drawn) [PS003, 8-((2R)-bicyclo[2.2.1]heptan-2-yl)-2-((3-fluoro-4-(4-(3-hydroxypropyl)piperidin-1-yl)phenyl)amino)pyrido[2,3-d]pyrimidin-7(8H)-one] | induced G2/M arrest |  | 

Structure (SMILES) | pIC50 [1] | pIC50 [2, 19] | pIC50 [3, 19] | pIC50 [4] | pIC50 [5, 19] | pIC50 [6] | pIC50 [7] | pIC50 [8, 19] | pIC50 [9] | pIC50 [10] | pIC50 [11] | pIC50 [12] | pIC50 [13] | pIC50 [14] | pIC50 [15] | pIC50 [16] | affinity for CDK5 [17] | kinase affinity profile [17] | cell cycle arrest by DNA content [18] | cell death (sub-G1 accumulation) [18] | also measured
CC(O)COC1CCN(c2ccc(Nc3ncc4ccc(=O)n([C@@H]5CC6CCC5C6)c4n3)cc2)CC1 (stereo partly drawn) [PS006, 8-((2R)-bicyclo[2.2.1]heptan-2-yl)-2-((4-(4-(2-hydroxypropoxy)piperidin-1-yl)phenyl)amino)pyrido[2,3-d]pyrimidin-7(8H)-one] | < 4.30 | 5.37 | 5.92 | 5.38 | 6.96 | 6.05 | 6.51 | 7.33 | 7.90 | 6.99 | 6.83 | 6.58 | 4.33 | < 4.30 | 5.42 | < 4.30 | presented affinity | high affinity for CDK6/2/5/9 | induced G2/M arrest; also recorded: arrested cells in G2/M phases |  | 
O=c1ccc2cnc(Nc3ccc(N4CCC(CCCO)CC4)cc3)nc2n1C1CC2CCC1C2 (stereo not shown) [PD-0183812, reference compound] | 4.32 |  |  | 4.76 |  | 5.28 | 6.05 |  | 7.70 | 6.59 | 6.76 | 6.31 | 4.50 | < 4.30 | 4.36 | 4.45 |  |  | arrested cells with a 4N DNA content |  | pIC50 [2]: 4.54; pIC50 [3]: 5.09; pIC50 [5]: 6.91; pIC50 [8]: 7.14
